Data from patent US4954487A, “Penetrating topical pharmaceutical compositions” (The Procter & Gamble Company, priority 1989, dated 1990).

Assay: Solubility of envelope-disordering compounds in the diol compounds
Conditions: typical compositions

- soluble in the diol compounds / same compositions up to: up to 50 % by weight
Structure (SMILES): CCCCCCCCCCO [n-decanol]
